In patent publication US20250059179A1, “Heterocyclic Compounds and Methods of Use” (AMGEN INC., priority 2021, published 2025):

What was measured:
[1] = target: GDP-bound KRAS protein (aa 1-169), containing both G12D and C118A amino acid substitutions (Homo sapiens, UniProt P01116, C118A/G12D); experiment: KRAS G12D Coupled Nucleotide Exchange Assay; assay type: biochemical; conditions: 2 h compound pre-incubation; SOS-mediated nucleotide exchange, cRAF AlphaScreen readout;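 also: IC50 obtained by fitting the AlphaScreen signal with a four-parameter logistic curve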
[2] = target: His-tagged KRAS G12D protein (Homo sapiens, UniProt P01116, G12D); experiment: KRAS G12D TR-FRET Assay; assay type: binding; conditions: biotinylated KRPep-2d substrate, 10 μM GDP;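 also: europium anti-His antibody paired with streptavidin-d2 as FRET partners, initial 30 min incubation, then peptide 1 h and detection reagents 1 h, all at room temperature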
[3] = system: Phosphorylation of ERK1/2 in A-427 cells; experiment: Phospho-ERK1/2 MSD Assay; assay type: cell-based; conditions: Homo sapiens, A-427, 2 h, 2 h compound treatment, read-out: pERK (A427 cells) IC50
Outline: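 ERK1/2 phosphorylation measured by Meso Scale whole-cell lysate assay after A-427 cells were exposed to a titration of compound for 2 h at 37 °C.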

GDP-bound KRAS protein (aa 1-169), containing both G12D and C118A amino acid substitutions, sequence (P01116 1-169 isoform P01116-2 G12D/C118A): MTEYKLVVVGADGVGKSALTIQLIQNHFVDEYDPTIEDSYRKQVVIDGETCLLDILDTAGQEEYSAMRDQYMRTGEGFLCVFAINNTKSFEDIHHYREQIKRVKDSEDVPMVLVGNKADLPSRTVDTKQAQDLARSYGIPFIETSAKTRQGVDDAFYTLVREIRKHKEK
His-tagged KRAS G12D protein, sequence (P01116 1-188 isoform P01116-2 G12D): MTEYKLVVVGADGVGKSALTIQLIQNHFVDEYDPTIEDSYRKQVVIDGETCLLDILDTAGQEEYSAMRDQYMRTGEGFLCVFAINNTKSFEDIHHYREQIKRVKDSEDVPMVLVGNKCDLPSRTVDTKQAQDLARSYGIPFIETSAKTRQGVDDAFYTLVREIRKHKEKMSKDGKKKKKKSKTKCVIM

| Structure (SMILES) | Avg 2 h Coupled Exchange IC50 [1] | IC50 [2] | IC50 [3] |
| --- | --- | --- | --- |
| Nc1nc2c(-c3c(Cl)cc4c(N5[C@@H]6CNC[C@H]5COC6)nc(OC[C@]56CCCN5C[C@H](F)C6)nc4c3F)ccc(F)c2s1 [Example 124, 4-(4-((1R,5S)-3-oxa-7,9-diazabicyclo[3.3.1]nonan-9-yl)-6-chloro-8-fluoro-2-(((2R,7aR)-2-fluorotetrahydro-1H-pyrrolizin-7a(5H)-yl)methoxy)quinazolin-7-yl)-7-fluorobenzo[d]thiazol-2-amine] | 6 nM | 7 nM | 287 nM |
| CN1C[C@H](F)C[C@H]1COc1nc(N2[C@@H]3CNC[C@H]2COC3)c2cc(Cl)c(-c3ccc(F)c4sc(N)nc34)c(F)c2n1 [Example 125, 4-(4-((1R,5S)-3-oxa-7,9-diazabicyclo[3.3.1]nonan-9-yl)-6-chloro-8-fluoro-2-(((2S,4R)-4-fluoro-1-methylpyrrolidin-2-yl)methoxy)quinazolin-7-yl)-7-fluorobenzo[d]thiazol-2-amine] | 9 nM | 6 nM | 369 nM |
| Nc1nc2c(-c3c(Cl)cc4c(N5[C@@H]6CNC[C@H]5COC6)nc(OCC56CCCN5CC(F)(F)C6)nc4c3F)ccc(F)c2s1 (stereo partly drawn) [Example 126, 4-(4-((1R,5S)-3-oxa-7,9-diazabicyclo[3.3.1]nonan-9-yl)-6-chloro-2-((2,2-difluorotetrahydro-1H-pyrrolizin-7a(5H)-yl)methoxy)-8-fluoroquinazolin-7-yl)-7-fluorobenzo[d]thiazol-2-amine] | 10 nM | 12 nM | 896 nM |
| Nc1nc2c(-c3cc4nc(OC[C@@]56CCCN5C[C@H](F)C6)nc(N5C[C@H]6CC[C@@H](C5)N6)c4cc3F)ccc(F)c2s1 [Example 132, 4-(4-((1R,5S)-3,8-diazabicyclo[3.2.1]octan-3-yl)-6-fluoro-2-(((2R,7aS)-2-fluorotetrahydro-1H-pyrrolizin-7a(5H)-yl)methoxy)quinazolin-7-yl)-7-fluorobenzo[d]thiazol-2-amine] | 4 nM | 3 nM | 440 nM |
| Nc1nc2c(-c3ccc4c(N5C[C@H]6CC[C@@H](C5)N6)nc(OC[C@@]56CCCN5C[C@H](F)C6)nc4c3)ccc(F)c2s1 [Example 133, 4-(4-((1R,5S)-3,8-diazabicyclo[3.2.1]octan-3-yl)-2-(((2R,7aS)-2-fluorotetrahydro-1H-pyrrolizin-7a(5H)-yl)methoxy)quinazolin-7-yl)-7-fluorobenzo[d]thiazol-2-amine] | 6 nM | 74 nM | 4440 nM |
| Nc1nc2c(-c3ccc4c(N5[C@@H]6CC[C@H]5CNC6)nc(OC[C@@]56CCCN5C[C@H](F)C6)nc4c3)ccc(F)c2s1 [Example 135, 4-(4-((1R,5S)-3,8-diazabicyclo[3.2.1]octan-8-yl)-2-(((2R,7aS)-2-fluorotetrahydro-1H-pyrrolizin-7a(5H)-yl)methoxy)quinazolin-7-yl)-7-fluorobenzo[d]thiazol-2-amine] | 64 nM | 207 nM | > 10000 nM |
| Nc1nc2c(-c3c(Cl)cc4c(N5C[C@H]6CC[C@@H](C5)N6)nc(OC[C@]56CCCN5C[C@H](F)C6)nc4c3F)ccc(F)c2s1 [Example 136, 4-(4-((1R,5S)-3,8-diazabicyclo[3.2.1]octan-3-yl)-6-chloro-8-fluoro-2-(((2R,7aR)-2-fluorotetrahydro-1H-pyrrolizin-7a(5H)-yl)methoxy)quinazolin-7-yl)-7-fluorobenzo[d]thiazol-2-amine] | 1 nM | 1 nM | 33 nM |
| Nc1nc2c(-c3c(Cl)cc4c(N5C[C@H]6CC[C@@H](C5)N6)nc(OC[C@@]56CCCN5C[C@H](F)C6)nc4c3F)ccc(F)c2s1 [Example 137, 4-(4-((1R,5S)-3,8-diazabicyclo[3.2.1]octan-3-yl)-6-chloro-8-fluoro-2-(((2R,7aS)-2-fluorotetrahydro-1H-pyrrolizin-7a(5H)-yl)methoxy)quinazolin-7-yl)-7-fluorobenzo[d]thiazol-2-amine] | 2 nM | 3 nM | 8 nM |
| Nc1nc2c(-c3cc4nc(OC[C@@]56CCCN5C[C@H](F)C6)nc(N5[C@@H]6CC[C@H]5CNC6)c4cc3F)ccc(F)c2s1 [Example 138, 4-(4-((1R,5S)-3,8-diazabicyclo[3.2.1]octan-8-yl)-6-fluoro-2-(((2R,7aS)-2-fluorotetrahydro-1H-pyrrolizin-7a(5H)-yl)methoxy)quinazolin-7-yl)-7-fluorobenzo[d]thiazol-2-amine] | 11 nM | 30 nM | 1700 nM |
| CN1CCC[C@H]1COc1nc(C2=CCNCC2)c2cc(Cl)c(-c3cccc4sc(N)nc34)c(F)c2n1 [Example 144, 4-(6-chloro-8-fluoro-2-(((S)-1-methylpyrrolidin-2-yl)methoxy)-4-(1,2,3,6-tetrahydropyridin-4-yl)quinazolin-7-yl)benzo[d]thiazol-2-amine] | 37 nM | 79 nM | 2300 nM |
| CN1CCC[C@H]1COc1nc(C2=CCNC2)c2cc(Cl)c(-c3cccc4sc(N)nc34)c(F)c2n1 [Example 148, 4-(6-chloro-4-(2,5-dihydro-1H-pyrrol-3-yl)-8-fluoro-2-(((S)-1-methylpyrrolidin-2-yl)methoxy)quinazolin-7-yl)benzo[d]thiazol-2-amine] | 74 nM | 56 nM | 3410 nM |
| C=Cc1cc2c(N3CCNCC3)nc(OC[C@@H]3CCCN3C)nc2c(F)c1-c1cccc2sc(N)nc12 [Example 149, 4-(8-fluoro-2-(((S)-1-methylpyrrolidin-2-yl)methoxy)-4-(piperazin-1-yl)-6-vinylquinazolin-7-yl)benzo[d]thiazol-2-amine] | 25 nM | 121 nM | 6930 nM |
| C=Cc1cc2c(N3C[C@H]4CC[C@@H](C3)N4)nc(OC[C@@]34CCCN3C[C@H](F)C4)nc2c(F)c1-c1ccc(F)c2sc(N)nc12 [Example 150, 4-(4-((1R,5S)-3,8-diazabicyclo[3.2.1]octan-3-yl)-8-fluoro-2-(((2R,7aS)-2-fluorotetrahydro-1H-pyrrolizin-7a(5H)-yl)methoxy)-6-vinylquinazolin-7-yl)-7-fluorobenzo[d]thiazol-2-amine] | 6 nM | 3 nM | 11 nM |
| C=Cc1cc2c(N3[C@@H]4CC[C@H]3CNC4)nc(OC[C@@]34CCCN3C[C@H](F)C4)nc2c(F)c1-c1ccc(F)c2sc(N)nc12 [Example 151, 4-(4-((1R,5S)-3,8-diazabicyclo[3.2.1]octan-8-yl)-8-fluoro-2-(((2R,7aS)-2-fluorotetrahydro-1H-pyrrolizin-7a(5H)-yl)methoxy)-6-vinylquinazolin-7-yl)-7-fluorobenzo[d]thiazol-2-amine] | 5 nM | 5 nM | 33 nM |
| CCc1cc2c(N3CCNCC3)nc(OC[C@@H]3CCCN3C)nc2c(F)c1-c1cccc2sc(N)nc12 [Example 152, 4-(6-Ethyl-8-fluoro-2-(((S)-1-methylpyrrolidin-2-yl)methoxy)-4-(piperazin-1-yl)quinazolin-7-yl)benzo[d]thiazol-2-amine] | 95 nM | 217 nM | > 25000 nM |
| CCc1cc2c(N3C[C@H]4CC[C@@H](C3)N4)nc(OC[C@@]34CCCN3C[C@H](F)C4)nc2c(F)c1-c1ccc(F)c2sc(N)nc12 [Example 153, 4-(4-((1R,5S)-3,8-diazabicyclo[3.2.1]octan-3-yl)-6-ethyl-8-fluoro-2-(((2R,7aS)-2-fluorotetrahydro-1H-pyrrolizin-7a(5H)-yl)methoxy)quinazolin-7-yl)-7-fluorobenzo[d]thiazol-2-amine] | 6 nM | 4 nM | 11 nM |
| CCc1cc2c(N3[C@@H]4CC[C@H]3CNC4)nc(OC[C@@]34CCCN3C[C@H](F)C4)nc2c(F)c1-c1ccc(F)c2sc(N)nc12 [Example 154, 4-(4-((1R,5S)-3,8-diazabicyclo[3.2.1]octan-8-yl)-6-ethyl-8-fluoro-2-(((2R,7aS)-2-fluorotetrahydro-1H-pyrrolizin-7a(5H)-yl)methoxy)quinazolin-7-yl)-7-fluorobenzo[d]thiazol-2-amine] | 4 nM | 4 nM | 55 nM |
| CN1CCC[C@H]1COc1nc2c(F)c(-c3cccc4sc(N)nc34)c(Cl)cc2c(N2CCNCC2)c1C#N [Example 158, 7-(2-aminobenzo[d]thiazol-4-yl)-6-chloro-8-fluoro-2-(((S)-1-methylpyrrolidin-2-yl)methoxy)-4-(piperazin-1-yl)quinoline-3-carbonitrile] | 87 nM | 414 nM | 3290 nM |
| N#Cc1c(OCC23CCCN2C[C@H](F)C3)nc2c(F)c(-c3ccc(F)c4sc(N)nc34)c(Cl)cc2c1N1[C@@H]2CC[C@H]1CNC2 (stereo partly drawn) [Example 159, 7-(2-amino-7-fluorobenzo[d]thiazol-4-yl)-4-((1R,5S)-3,8-diazabicyclo[3.2.1]octan-8-yl)-6-chloro-8-fluoro-2-(((2R)-2-fluorotetrahydro-1H-pyrrolizin-7a(5H)-yl)methoxy)quinoline-3-carbonitrile] | 88 nM | 174 nM | > 10000 nM |
| Nc1nc2c(-c3c(Cl)cc4c(N5C[C@H]6CC[C@@H](C5)N6)cc(OC[C@@]56CCCN5C[C@H](F)C6)nc4c3F)ccc(F)c2s1 [Example 161, 4-(4-((1R,5S)-3,8-Diazabicyclo[3.2.1]octan-3-yl)-6-chloro-8-fluoro-2-(((2R,7aS)-2-fluorotetrahydro-1H-pyrrolizin-7a(5H)-yl)methoxy)quinolin-7-yl)-7-fluorobenzo[d]thiazol-2-amine] | 24 nM | 57 nM | 5790 nM |
